# Experimental data: patent US12037325B2, “1,2-diaminobenzimidazole derivative” (Carna Biosciences, Inc., priority 2021, dated 2024)
# Where a name gives a salt, the structure may show the parent alone.
# Columns and labels:
# [1] = target: T1, hSTING (Homo sapiens, UniProt Q86WV6); assay: Inhibition test of intracellular human STING (hSTING) pathways using reporter cells (HEK-Blue ISG, SEAP reporter); assay type: cell-based; conditions: stimulation with Compound 3 (10 nM), 21 hours; for IC50: read-out: Inhibitory Activity on hSTING
# T1 construct: host or cells: HEK-Blue ISG cells (HEK293-derived SEAP reporter line)
# T1 sequence (Q86WV6 whole entry H232R): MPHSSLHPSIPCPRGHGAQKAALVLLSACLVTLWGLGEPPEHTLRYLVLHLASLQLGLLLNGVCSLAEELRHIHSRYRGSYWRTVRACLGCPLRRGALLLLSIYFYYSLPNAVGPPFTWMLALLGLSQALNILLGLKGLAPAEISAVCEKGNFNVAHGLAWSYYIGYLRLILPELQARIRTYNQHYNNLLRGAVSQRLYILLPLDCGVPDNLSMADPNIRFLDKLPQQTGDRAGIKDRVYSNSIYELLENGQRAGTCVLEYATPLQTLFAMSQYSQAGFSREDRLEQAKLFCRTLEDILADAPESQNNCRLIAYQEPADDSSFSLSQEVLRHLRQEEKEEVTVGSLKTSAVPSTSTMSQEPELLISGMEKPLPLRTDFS
# Experimental: Since STING activates the transcription factor IRF3 by ligand stimulation, the activity of STING can be evaluated by a reporter assay using a secreted alkaline phosphatase (SEAP reporter) incorporated downstream of the IRF-inducible promoter. In other words, the hSTING inhibitory activity of the test compounds was evaluated using HEK-Blue™ ISG cells (manufactured by InvivoGen, #hkb-isg-1) into which the SEAP reporter was incorporated. The activation of hSTING was performed by stimulation with the small molecule ligand, Compound 3 as described in the literature (Ramanjulu, J. M., et al., Nature. 2018, 564 (7736), 439-443).
# The HEK-Blue™ ISG cells were seeded in 96-well plates and cultured overnight at 37° C. in a 5% CO2 incubator. To each well of the cell culture plates, a test compound solution adjusted to have a final concentration of 0.1 to 10 μM was added and cultured in the CO2 incubator for 1 hour. Then, the Compound 3 (final concentration of 10 nM) was added thereto and further cultured in the CO2 incubator for 21 hours. After collecting the culture supernatant from each well, the reporter activity was measured by luminous reaction of alkaline phosphatase.
# (§1) Method for Evaluating Inhibitory Activity. Taking the reporter activity in the group without test compounds added and with Compound 3 added as 100% and the reporter activity in the group without test compounds added and without Compound 3 added as 0%, IC50 values were determined by regression analysis of the inhibition rate calculated from the reporter activity at each compound concentration and the test compound concentration (logarithm).
# Evaluation Result. […] The inhibitory effect on the hSTING was indicated by marking an IC50 value of less than 0.1 μM with ***, that of 0.1 μM or more and less than 1 μM with **, that of 1 μM or more and less than 10 μM with *, and that of 10 μM or more with “-”.
# [2] = target: T2, STING (Homo sapiens, UniProt Q86WV6, G230A/H232R/R293Q/R71H); assay: Inhibition test of human IFN-β production by cGAMP stimulation in THP-1 cells; assay type: cell-based; conditions: PMA-treated THP-1 cells, 2'3'-cGAMP transfection, 18 hours, ELISA of culture supernatant; read-out: Inhibitory effect on the IFN-β production
# T2 construct: host or cells: THP-1 cells, PMA-treated
# T2 sequence (Q86WV6 whole entry R71H/G230A/H232R/R293Q): as the sequence (Q86WV6 whole entry H232R) above, with R71H, G230A, R293Q counted along it
# Experimental: The human monocytic cell line THP-1 cells were used to measure the amount of IFN-β produced when stimulated with the endogenous ligand cGAMP, thereby evaluating the inhibitory activity of the test compounds on STING activation.
# After THP-1 cells (manufactured by ATCC) were seeded in 96-well plates, PMA (manufactured by Santa Cruz Biotechnology, Inc.) adjusted to a concentration after addition of 100 nM was added and cultured overnight at a 37° C. in a 5% CO2 incubator (10% FBS, 50 U/mL penicillin/50 μg/mL streptomycin-containing RPMI 1640 medium). To each well of the plate, a test compound solution adjusted to a final concentration of 0.001-1 μM of the test compound was added and cultured in the CO2 incubator for 1 hour (DMSO final concentration of 0.1%). 0.12 μg/well of 2′3′-cGAMP (manufactured by ChemieTek, #CT-CGAMP) was introduced into the cells by transfection method using Lipofectamine 2000 (manufactured by Invitrogen) and cultured in the CO2 incubator for another 18 hours. After collecting the culture supernatant from each well, the amount of human IFN-P production in the culture supernatant was measured by ELISA method using R&D human IFN-β Duoset (manufactured by R&D systems).
# as §1, with “amount of human IFN-β production” for “reporter activity”, “cGAMP” for “Compound 3”
# Evaluation Result. […] The inhibitory effect on the IFN-β production was indicated by marking an IC50 value of less than 0.01 μM with ***, that of 0.01 μM or more and less than 0.1 μM with **, that of 0.1 μM or more and less than 1 μM with *, and that of 1 μM or more with “-”, and NT was marked as unmeasured.
Structure (SMILES),IC50 [1] [nM],IC50 [2] [nM],Inhibitory Activity on hSTING [1]
"Cc1ccc2[nH]cc(Nc3nc4cc(C(F)(F)F)c(F)cc4n3N)c2c1 [Example 9, 6-fluoro-N2-(5-methyl-1H-indol-3-yl)-5-(trifluoromethyl)-1H-benzo[d]imidazole-1,2-diamine hydrochloride]",100 to 1000,< 10,–
"CNn1c(Nc2c[nH]c3cc(F)c(F)cc23)nc2cc(C(F)(F)F)c(F)cc21 [Example 10, N2-(5,6-difluoro-1H-indol-3-yl)-6-fluoro-N1-methyl-5-(trifluoromethyl)-1H-benzo[d]imidazole-1,2-diamine]",100 to 1000,10 to 100,–
"Nn1c(Nc2c[nH]c3ccc(F)c(F)c23)nc2cc(C(F)(F)F)ccc21 [Example 11, N2-(4,5-difluoro-1H-indol-3-yl)-5-(trifluoromethyl)-1H-benzo[d]imidazole-1,2-diamine hydrochloride]",100 to 1000,10 to 100,–
"CNn1c(Nc2c[nH]c3ccc(F)c(F)c23)nc2cc(C(F)(F)F)c(F)cc21 [Example 12, N2-(4,5-difluoro-1H-indol-3-yl)-6-fluoro-N1-methyl-5-(trifluoromethyl)-1H-benzo[d]imidazole-1,2-diamine hydrochloride]",1000 to 10000,> 1000,–
"CNn1c(Nc2c[nH]c3c(F)cc(F)cc23)nc2cc(C(F)(F)F)cc(F)c21 [Example 13, N2-(5,7-difluoro-1H-indol-3-yl)-7-fluoro-N1-methyl-5-(trifluoromethyl)-1H-benzo[d]imidazole-1,2-diamine hydrochloride]",< 100,< 10,–
"CCNn1c(Nc2c[nH]c3ccc(Cl)cc23)nc2cc(C(F)(F)F)cc(F)c21 [Example 14, N2-(5-chloro-1H-indol-3-yl)-N1-ethyl-7-fluoro-5-(trifluoromethyl)-1H-benzo[d]imidazole-1,2-diamine]",< 100,< 10,–
"CCNn1c(Nc2c[nH]c3cc(F)c(F)cc23)nc2cc(C(F)(F)F)ccc21 [Example 15, N2-(5,6-difluoro-1H-indol-3-yl)-N1-ethyl-5-(trifluoromethyl)-1H-benzo[d]imidazole-1,2-diamine]",< 100,< 10,–
"CNn1c(Nc2c[nH]c3ccc(F)cc23)nc2cc(C(F)(F)F)ccc21 [Example 16, N2-(5-fluoro-1H-indol-3-yl)-N1-methyl-5-(trifluoromethyl)-1H-benzo[d]imidazole-1,2-diamine hydrochloride]",< 100,< 10,–
"CNn1c(Nc2c[nH]c3ccc(C)c(F)c23)nc2cc(C(F)(F)F)ccc21 [Example 17, N2-(4-fluoro-5-methyl-1H-indol-3-yl)-N1-methyl-5-(trifluoromethyl)-1H-benzo[d]imidazole-1,2-diamine hydrochloride]",< 100,< 10,–
"CNn1c(Nc2c[nH]c3cc(F)c(C)cc23)nc2cc(C(F)(F)F)ccc21 [Example 18, N2-(6-fluoro-5-methyl-1H-indol-3-yl)-N1-methyl-5-(trifluoromethyl)-1H-benzo[d]imidazole-1,2-diamine]",< 100,< 10,–
"CCNn1c(Nc2c[nH]c3c(F)cc(F)cc23)nc2cc(C(F)(F)F)ccc21 [Example 19, N2-(5,7-difluoro-1H-indol-3-yl)-N1-ethyl-5-(trifluoromethyl)-1H-benzo[d]imidazole-1,2-diamine]",< 100,< 10,–
"CC(C)Nn1c(Nc2c[nH]c3ccc(Cl)cc23)nc2cc(C(F)(F)F)ccc21 [Example 20, N2-(5-chloro-1H-indol-3-yl)-N1-isopropyl-5-(trifluoromethyl)-1H-benzo[d]imidazole-1,2-diamine]",–,–,* *
"Nn1c(Nc2c[nH]c3c(F)cc(F)cc23)nc2cc(C(F)(F)F)ccc21 [Example 21, N2-(5,7-difluoro-1H-indol-3-yl)-5-(trifluoromethyl)-1H-benzo[d]imidazole-1,2-diamine hydrochloride]",< 100,100 to 1000,–
"CCNn1c(Nc2c[nH]c3c(F)cc(F)cc23)nc2cc(C(F)(F)F)cc(F)c21 [Example 22, N2-(5,7-difluoro-1H-indol-3-yl)-N1-ethyl-7-fluoro-5-(trifluoromethyl)-1H-benzo[d]imidazole-1,2-diamine hydrochloride]",< 100,10 to 100,–
"CCNn1c(Nc2c[nH]c3cc(F)c(F)cc23)nc2cc(C(F)(F)F)cc(F)c21 [Example 23, N2-(5,6-difluoro-1H-indol-3-yl)-N1-ethyl-7-fluoro-5-(trifluoromethyl)-1H-benzo[d]imidazole-1,2-diamine hydrochloride]",< 100,10 to 100,–
"CCCNn1c(Nc2c[nH]c3ccc(Cl)cc23)nc2cc(C(F)(F)F)ccc21 [Example 24, N2-(5-chloro-1H-indol-3-yl)-N1-propyl-5-(trifluoromethyl)-1H-benzo[d]imidazole-1,2-diamine]",< 100,10 to 100,–

# Now from value to compound:
IC50 [1] [nM],IC50 [2] [nM],Inhibitory Activity on hSTING [1],Structure (SMILES)
< 100,< 10,–,"Nn1c(Nc2c[nH]c3ccc(Cl)cc23)nc2cc(C(F)(F)F)ccc21 [Example 1, N2-(5-chloro-1H-indol-3-yl)-5-(trifluoromethyl)-1H-benzo[d]imidazol-1,2-diamine Hydrochloride]"
< 100,< 10,–,"Nn1c(Nc2c[nH]c3cc(F)c(F)cc23)nc2cc(C(F)(F)F)ccc21 [Example 2, N2-(5,6-difluoro-1H-indol-3-yl)-5-(trifluoromethyl)-1H-benzo[d]imidazol-1,2-diamine Formate]"
< 100,< 10,–,"CNn1c(Nc2c[nH]c3ccc(F)c(F)c23)nc2cc(C(F)(F)F)ccc21 [Example 3, N2-(4,5-difluoro-1H-indol-3-yl)-N1-methyl-5-(trifluoromethyl)-1H-benzo[d]imidazol-1,2-diamine Hydrochloride]"
< 100,< 10,–,"CNn1c(Nc2c[nH]c3cc(F)c(F)cc23)nc2cc(C(F)(F)F)ccc21 [Example 4, N2-(5,6-difluoro-1H-indol-3-yl)-N1-methyl-5-(trifluoromethyl)-1H-benzo[d]imidazol-1,2-diamine]"
< 100,< 10,–,"CNn1c(Nc2c[nH]c3c(F)cc(F)cc23)nc2cc(C(F)(F)F)ccc21 [Example 5, N2-(5,7-difluoro-1H-indol-3-yl)-N1-methyl-5-(trifluoromethyl)-1H-benzo[d]imidazol-1,2-diamine]"
< 100,< 10,–,"CCNn1c(Nc2c[nH]c3ccc(Cl)cc23)nc2cc(C(F)(F)F)ccc21 [Example 6, N2-(5-chloro-1H-indol-3-yl)-N1-ethyl-5-(trifluoromethyl)-1H-benzo[d]imidazol-1,2-diamine Hydrochloride]"
< 100,< 10,–,"Nn1c(Nc2c[nH]c3ccc(Cl)cc23)nc2cc(C(F)(F)F)c(F)cc21 [Example 7, N2-(5-chloro-1H-indol-3-yl)-6-fluoro-5-(trifluoromethyl)-1H-benzo[d]imidazole-1,2-diamine hydrochloride]"
< 100,< 10,–,"CNn1c(Nc2c[nH]c3ccc(C)cc23)nc2cc(C(F)(F)F)c(F)cc21 [Example 8, 6-fluoro-N1-methyl-N2-(5-methyl-1H-indol-3-yl)-5-(trifluoromethyl)-1H-benzo[d]imidazole-1,2-diamine]"
